Experiments:
human mGluR2 receptor = molecular target: T1, human mGluR2 receptor (Homo sapiens, UniProt Q14416); assay: [35S]GTPγS binding assay (GTPγS-PAM): positive allosteric modulation in presence of glutamate at EC25, membranes from transfected CHO cells; type: biochemical; conditions: in presence of mGluR2 agonist glutamate at predetermined EC25 concentration, averages of duplicate values of 11-concentration response curves, read-out: GTPgS - hR2 PAM pEC50 (converted)
T1 construct: expressed in transfected cells; host or cells: CHO cells (membrane preparation)
T1 sequence (Q14416 19-872): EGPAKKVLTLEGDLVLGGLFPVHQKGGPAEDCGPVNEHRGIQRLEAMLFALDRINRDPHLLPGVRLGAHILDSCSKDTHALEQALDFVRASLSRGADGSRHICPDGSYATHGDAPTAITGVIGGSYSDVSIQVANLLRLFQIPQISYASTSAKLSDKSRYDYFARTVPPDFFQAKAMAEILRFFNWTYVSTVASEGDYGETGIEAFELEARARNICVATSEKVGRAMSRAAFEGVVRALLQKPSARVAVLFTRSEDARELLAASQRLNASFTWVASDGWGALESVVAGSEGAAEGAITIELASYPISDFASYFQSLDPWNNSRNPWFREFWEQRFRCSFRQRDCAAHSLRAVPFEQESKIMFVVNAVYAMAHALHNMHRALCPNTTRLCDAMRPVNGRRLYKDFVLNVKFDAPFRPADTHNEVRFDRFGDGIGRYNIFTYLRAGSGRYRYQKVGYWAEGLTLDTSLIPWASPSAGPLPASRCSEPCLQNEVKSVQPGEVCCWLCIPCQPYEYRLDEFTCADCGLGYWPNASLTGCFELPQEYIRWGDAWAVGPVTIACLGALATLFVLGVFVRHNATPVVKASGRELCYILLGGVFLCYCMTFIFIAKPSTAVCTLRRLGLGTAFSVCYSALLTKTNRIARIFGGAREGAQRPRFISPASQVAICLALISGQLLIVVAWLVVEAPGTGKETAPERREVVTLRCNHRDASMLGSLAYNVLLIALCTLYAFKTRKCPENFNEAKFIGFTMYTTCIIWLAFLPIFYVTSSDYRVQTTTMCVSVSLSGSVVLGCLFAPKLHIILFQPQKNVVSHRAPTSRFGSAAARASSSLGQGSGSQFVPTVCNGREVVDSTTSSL
Method in brief: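 Membranes came from butyrate-stimulated CHO cells expressing human mGluR2, used at 15 μg/well in HEPES pH 7.4 with 100 mM NaCl, 3 mM MgCl2, 50 μM GDP and saponin. Compound (0.3 nM-50 μM, 11 concentrations) plus glutamate at EC25 was preincubated 30 min at 30° C., then 0.1 nM [35S]GTPγS was added for 30 min. Filter-bound radioactivity was counted, nonspecific binding was taken with 10 μM GTP, and curves were fitted by four-parameter logistic.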

| EC50 (human mGluR2 receptor) [nM] | melting point [°C] | Structure (SMILES) |
| --- | --- | --- |
| 794 | 125 | N#Cc1c(N2CCN(Cc3ccc(OC(F)(F)F)c(Cl)c3)CC2)ccn(CC2CC2)c1=O [2-039] |
| 3980 | 100 | CC(C)CCn1ccc(N2CCC(N(C)Cc3cccc(F)c3)C2)c(C#N)c1=O (stereo not drawn) [5-006] |
| 126 | 91 | CC(C)CCn1ccc(N2CCC(N(C)Cc3ccc(C(F)(F)F)cc3)CC2)c(C#N)c1=O [4-029] |
| 158 | 134 | CCCCn1ccc(N2CCN(Cc3ccc(OCC4CC4)c(Cl)c3)CC2)c(C#N)c1=O [2-003] |
| 6310 | 164.7 | CCCCn1ccc(-c2ccc3c(c2)nc(C)n3Cc2ccccn2)c(C#N)c1=O [5-002] |
| 50.1 | 130 | CC(C)CCn1ccc(N2CCc3c(oc4ccccc34)C2)c(C#N)c1=O [5-041] |
| 79.4 | 258 | N#Cc1c(N2CCN(c3ncccc3C(F)(F)F)CC2)ccn(Cc2ccc(OC(F)(F)F)cc2)c1=O [2-048] |
| 1000 | 112 | CC(C)Cn1ccc(N2CCN(Cc3ccc(OC(F)(F)F)c(Cl)c3)CC2)c(C#N)c1=O [2-010] |
| 3160 | 92 | N#Cc1c(N2CCN(CC(=O)c3ccccc3)CC2)ccn(Cc2ccc(OC(F)(F)F)cc2)c1=O [2-046] |
| 50.1 | 96 | N#Cc1c(N2CCC(N(Cc3cccc(C(F)(F)F)c3)C3CC3)CC2)ccn(Cc2ccc(F)cc2)c1=O [4-060] |
| 251 | 188 | CC(C)CCn1ccc(NC2CCN(c3ccc(C(F)(F)F)cn3)CC2)c(C#N)c1=O [3-004] |
| 5010 | 140 | N#Cc1c(N2CCN(Cc3cc(F)cc(C(F)(F)F)c3)CC2)ccn(CC2CC2)c1=O [2-038] |
| 6310 | 208 | CC(C)CCn1ccc(OC2CCN(Cc3ccccc3)CC2)c(C#N)c1=O [3-007] |
| 398 | 113 | CC(C)CCn1ccc(N2CCC(c3noc(CC(C)(C)C)n3)CC2)c(C#N)c1=O [4-040] |
| 251 | 110 | N#Cc1c(N2CCN(CCc3ccccc3)CC2)ccn(Cc2ccc(OC(F)(F)F)cc2)c1=O [2-043] |
| 200 | 138 | CN(Cc1ccccc1)C1CCN(c2ccn(Cc3ccc(OC(F)(F)F)cc3)c(=O)c2C#N)CC1 [4-049] |
| 501 | 157 | N#Cc1c(N2CCN(Cc3ccc(OCC4CC4)c(Cl)c3)CC2)ccn(CC2CC2)c1=O [2-040] |
| 1000 | 223 | CC(C)CCn1ccc(C(=O)N2CCN(c3ncccn3)CC2)c(C#N)c1=O [2-037] |

Continued, molecule first:

| Structure (SMILES) | EC50 (human mGluR2 receptor) [nM] | melting point [°C] |
| --- | --- | --- |
| CC(C)CCn1ccc(-c2ccc(OCc3ccncc3)cc2F)c(C#N)c1=O [1-162] | 398 | 156 |
| N#Cc1c(-c2ccc(N3CCOCC3)cc2)ccn(Cc2ccc(OC(F)(F)F)cc2)c1=O [1-032] | 794 | 190 |
| N#Cc1c(-c2ccc(OCCCN3CCOCC3)cc2)ccn(Cc2ccc(OC(F)(F)F)cc2)c1=O [1-038] | 794 | 140 |
| N#Cc1c(-c2ccccc2)ccn(Cc2ccc(-c3ccccc3)cc2)c1=O [1-042] | 158 | 185 |
| COc1cccc(COc2ccc(-c3ccn(CCC(C)C)c(=O)c3C#N)cc2)c1 [1-144] | 63.1 | 100 |
| CCCCn1ccc(Nc2ccc(Oc3cccnc3)cc2)c(C#N)c1=O [1-296] | 1580 | 151 |
| CC(C)CCn1ccc(-c2ccc(OCc3cccc(F)c3)cc2)c(C#N)c1=O [1-146] | 63.1 | 139 |
| CC(C)CCn1ccc(-c2ccc(CN(C)C)cc2)c(C#N)c1=O [1-173] | 6310 | 130 |
| Cc1ccc(-c2ccn(CCC(C)C)c(=O)c2C#N)cc1 [1-085] | 794 | 102 |
| CC(C)CCn1ccc(-c2ccc(CC#N)cc2)c(C#N)c1=O [1-254] | 2510 | 122 |
| CC(C)CCn1ccc(-c2ccc(C(=O)N3CCN(Cc4ccc(OC(F)(F)F)c(Cl)c4)CC3)cc2)c(C#N)c1=O [1-247] | 398 | 217 |
| CC(C)CCn1ccc(-c2cccc(NS(C)(=O)=O)c2)c(C#N)c1=O [1-215] | 3160 | 70 |
| CC(C)CCn1ccc(-c2ccc(NCc3cccc(Cl)c3)cc2)c(C#N)c1=O [1-202] | 31.6 | 146 |
| COc1ccc(-c2ccn(Cc3ccc(C(F)(F)F)cc3)c(=O)c2C#N)cc1 [1-024] | 126 | 181 |
| CC(=O)N1CCN(c2cccc(-c3ccn(CCC(C)C)c(=O)c3C#N)c2)CC1 [1-230] | 501 | 143 |
| N#Cc1c(-c2ccc(CCCO)cc2)ccn(Cc2ccc(OC(F)(F)F)cc2)c1=O [1-040] | 200 | 180 |
| CC(C)CCn1ccc(-c2ccc(Oc3ccc(C#N)cc3)cc2)c(C#N)c1=O [1-152] | 100 | 193 |
| CNc1ccc(-c2ccn(CCC(C)C)c(=O)c2C#N)cc1 [1-171] | 501 | 189 |
| CC(C)CCn1ccc(-c2ccc(OCc3ccccc3)c(F)c2)c(C#N)c1=O [1-148] | 50.1 | 173 |
| CC(C)CCn1ccc(-c2ccc(OCC#N)cc2)c(C#N)c1=O [1-131] | 2510 | 132 |
| CC(C)CCn1ccc(-c2ccc(OC(C)C)cc2)c(C#N)c1=O [1-111] | 316 | 129 |
| CC(C)CCn1ccc(-c2ccccc2F)c(C#N)c1=O [1-087] | 3980 | 125 |
| COc1ccc(-c2ccn(CCC(C)C)c(=O)c2C#N)cc1Cl [1-112] | 316 | 149 |
| COc1cccc(Oc2ccc(-c3ccn(CCC(C)C)c(=O)c3C#N)cc2)c1 [1-143] | 79.4 | 118 |

| Structure (SMILES) | EC50 (human mGluR2 receptor) [nM] | melting point [°C] |
| --- | --- | --- |
| CC(C)CCn1ccc(-c2ccc(Oc3ccncc3)cc2)c(C#N)c1=O [1-156] | 501 | 139 |
| CC(=O)NCc1ccc(-c2ccn(CCC(C)C)c(=O)c2C#N)cc1 [1-179, 4-(4-(N-acetylmethyl)phenyl)-3-cyano-1-(3-methylbutyl)pyridine-2(1H)-one] | 3160 | 144 |
| N#Cc1c(-c2ccccc2)ccn(Cc2cccc(OC(F)(F)F)c2)c1=O [1-030] | 316 | 153 |
| CC(C)CCn1ccc(-c2ccc(OCc3ccc(C(F)(F)F)nc3)cc2)c(C#N)c1=O [1-163] | 79.4 | 202 |
| CC(C)CCn1ccc(-c2ccc(NCc3ccncc3)cc2)c(C#N)c1=O [1-210] | 1000 | 73 |
| COc1ccc(-c2ccn(CCC(C)C)c(=O)c2C#N)cc1F [1-114, 3-cyano-4-(3-fluoro-4-methoxyphenyl)-1-(3-methylbutyl)pyridine-2(1)-one] | 1000 | 133 |
| CC(C)CCn1ccc(N(C)C2CCN(Cc3cccc(C(F)(F)F)c3)CC2)c(C#N)c1=O [3-006] | 2510 | 131 |
| CC(C)CCn1ccc(-c2ccc(C(C#N)c3ccn(CCC(C)C)c(=O)c3C#N)cc2)c(C#N)c1=O (stereo not drawn) [1-255] | 794 | 233 |
| CC(C)CCn1ccc(-c2ccc(O)cc2)c(C#N)c1=O [1-097] | 1580 | 210 |
| Cc1ccc(Cn2ccc(-c3ccco3)c(C#N)c2=O)cc1 [1-018] | 2510 | 155 |
| CC(C)CCn1ccc(-c2ccc(OCC(F)(F)F)c(Cl)c2)c(C#N)c1=O [1-123] | 158 | 189 |
| CC(C)CCn1ccc(-c2ccc(CC(=O)N(C)C)cc2)c(C#N)c1=O [1-244] | 6310 | 122 |
| CC(C)CCn1ccc(-c2ccc(OCc3ccccc3)c(Cl)c2)c(C#N)c1=O [1-150] | 79.4 | 177 |
| CC(C)CCn1ccc(-c2ccc3c(c2)CCO3)c(C#N)c1=O [1-251] | 1260 | 117 |
| CC(C)CCn1ccc(-c2ccc(Cl)cc2)c(C#N)c1=O [1-091] | 1580 | 137 |
| CC(C)CCn1ccc(OCc2ccc(OC(F)F)cc2)c(C#N)c1=O [1-284] | 631 | 190 |
| CSc1ccc(-c2ccn(CCC(C)C)c(=O)c2C#N)cc1 [1-256] | 158 | 128 |
| COC(=O)CCc1ccc(-c2ccn(CCC(C)C)c(=O)c2C#N)cc1 [1-239] | 794 | 120 |
| CC(C)CCn1ccc(-c2cccc(O)c2)c(C#N)c1=O [1-096] | 1580 | 201 |
| CCCCn1ccc(-c2ccc(OCc3cccc(C)n3)cc2)c(C#N)c1=O [1-063] | 1000 | 102 |
| CC(=O)NCCOc1ccc(-c2ccn(CCC(C)C)c(=O)c2C#N)cc1 [1-128] | 3160 | 107 |
| CC(C)CCn1ccc(-c2ccc(OCc3ccncc3)cc2)c(C#N)c1=O [1-159] | 501 | 171 |
| N#Cc1c(-c2ccc(OCCN3CCOCC3)cc2)ccn(Cc2ccc(OC(F)(F)F)cc2)c1=O [1-037] | 2000 | 184 |
| CC(C)CCn1ccc(-c2ccc(CN(C)Cc3ccncc3)cc2)c(C#N)c1=O [1-211] | 631 | 142 |

— patent US9266834B2, “1, 4-disubstituted 3-cyano-pyridone derivatives and their use as positive allosteric modulators of MGLUR2-receptors” (JANSSEN PHARMACEUTICALS, INC., priority 2006, dated 2016)
